Test results published in US20150307940A1, “MOLECULAR SIGNATURE OF CUTANEOUS PIGMENTARY SPOTS, ASSOCIATED WITH THE EXTRACELLULAR MATRIX” (L'OREAL, priority 2011, published 2015).
Like-named read-outs stand apart in the source and are kept apart here. Where a SMILES comes first, the peptide text is derived from it.

Experiments:
[1] = test system: SMAD7, SMAD family member 7; details: cited from earlier work
[2] = test system: BMP2, bone morphogenetic protein 2; details: cited from earlier work
ASPN, Asporin = details: cited from earlier work
[3] = target: PLAU, plasminogen activator, urokinase (Homo sapiens, UniProt P00749); details: cited from earlier work
[4] = test system: SMAD3, SMAD family member 3; details: cited from earlier work
[5] = test system: TGFBR2, transforming growth factor, β receptor II (70/80 kDa); details: cited from earlier work
[6] = test system: TIMP1, metallopeptidase inhibitor 1; details: cited from earlier work
[7] = target: T1, PLOD2, procollagen-lysine, 2-oxoglutarate 5-dioxygenase 2 (Homo sapiens, UniProt O00469); details: cited from earlier work
T1 sequence (O00469 26-737): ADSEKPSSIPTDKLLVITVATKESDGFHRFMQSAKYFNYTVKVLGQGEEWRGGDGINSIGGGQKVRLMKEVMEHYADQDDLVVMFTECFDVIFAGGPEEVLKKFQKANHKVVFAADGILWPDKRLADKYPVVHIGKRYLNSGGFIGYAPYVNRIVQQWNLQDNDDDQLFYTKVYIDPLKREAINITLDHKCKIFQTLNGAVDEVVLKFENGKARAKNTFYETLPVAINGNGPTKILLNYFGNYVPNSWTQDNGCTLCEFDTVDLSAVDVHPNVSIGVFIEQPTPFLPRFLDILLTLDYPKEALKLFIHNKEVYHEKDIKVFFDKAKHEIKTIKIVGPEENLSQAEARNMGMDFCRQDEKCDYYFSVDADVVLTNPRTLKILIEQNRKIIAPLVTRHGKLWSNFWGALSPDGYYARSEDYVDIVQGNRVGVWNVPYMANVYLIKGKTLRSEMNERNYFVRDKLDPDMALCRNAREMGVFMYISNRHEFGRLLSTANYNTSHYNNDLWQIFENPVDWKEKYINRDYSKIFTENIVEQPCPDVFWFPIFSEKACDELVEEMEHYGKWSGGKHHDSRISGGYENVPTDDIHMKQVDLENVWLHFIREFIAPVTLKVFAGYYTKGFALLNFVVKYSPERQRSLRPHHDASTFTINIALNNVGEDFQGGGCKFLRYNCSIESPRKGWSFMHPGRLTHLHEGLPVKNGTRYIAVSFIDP

[8] = target: T2, LYZ, lysozyme (renal amyloidosis) (Homo sapiens, UniProt P61626); details: cited from earlier work
T2 sequence (P61626 19-148): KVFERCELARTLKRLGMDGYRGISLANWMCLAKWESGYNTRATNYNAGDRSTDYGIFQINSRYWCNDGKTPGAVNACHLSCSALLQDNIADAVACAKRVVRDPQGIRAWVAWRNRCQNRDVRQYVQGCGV

[9] = test system: reconstructed pigmented skin (RPS); assay: Stimulation of pigmentation of reconstructed pigmented skin by treatment with TGF-beta; format: cell-based; details: 200 pg/mL TGF-β1 on equivalent dermis for 3 days, compared with control
Experimental: FIG. 1: This figure illustrates the Reconstructed Pigmented Skin (RPS) treatment protocol using TGF-β. In the diagram, T means “treatment with TGF-β”, in a concentration of 200 pg/mL, with 4 mM of HCl and 1 mg/mL of BSA as the vehicle. The medium was MEM 3F′ with 2% FBS. The equivalent derma were treated for 3 consecutive days. On D0i, the equivalent dermis was seeded with keratinocytes and melanocytes (K+M on the graph) and kept immersed for 7 days. The culture was then emersed for 2 weeks;
The treatment protocol for reconstructed pigmented skin (RPS) with TGF-β is illustrated in FIG. 1. It was as follows:
Equivalent dermis (lattices) containing live fibroblasts in a collagen matrix were attached to the bottom of a Petri dish (D-4) and treated with TGF-β1 (T on FIG. 1) in a concentration of 200 pg/mL (vehicle: 4 mM of HCl and 1 mg/mL of BSA; medium: MEM 3F′ with 2% FBS), for 3 days (D-3; D-2 and D-1 in FIG. 1). Next, the pigmented epidermis was reconstructed on the equivalent dermis by seeding keratinocytes and melanocytes (D0). The culture was kept immersed for 1 week and emersed for 2 weeks (FIG. 1).
Samples were removed to analyse the pigmentation: • integration and morphology of melanocytes were observed after Dopa reaction on detached epidermis; • colorimetric luminance measurement provided information regarding the degree of clarity of the samples (the lower the L*, the darker the samples); • the presence of melanin was observed after Fontana Masson staining skin sections; and • the quantity of melanin present in the epidermis was measured by image analysis.

MATN2, matrilin 2 = details: cited from earlier work

O=CC(=O)C[C@H](O)[C@H](O)CO [3-deoxyglucosone]
Sense of modulation: SMAD7 expression [1]: Increases

Cc1cc(SCc2sc(-c3ccc(C(F)(F)F)c(F)c3)nc2C)ccc1OCC(=O)O [GW0742]
Sense of modulation: BMP2 expression [2]: Reduces exp.
Sense of modulation: BMP2 expression ([2]; listed as GW-0742): reduces

N#Cc1ccc(C(c2ccc(C#N)cc2)n2cncn2)cc1 [Letrozole]
Sense of modulation: ASPN expression (ASPN, Asporin): Increases

CC(=O)N[C@@H](CO)C(=O)N[C@@H](CC(=O)O)C(=O)N[C@@H](CCCCN)C(=O)N1CCC[C@H]1C(=O)O [N-acetyl-seryl-aspartyl-lysyl-proline] (Ac-SDKP-OH)
Sense of modulation: SMAD7 expression [1]: Increases

CC(C)=CCC[C@](C)(O[C@@H]1O[C@H](CO)[C@@H](O)[C@H](O)[C@H]1O)[C@H]1CC[C@]2(C)[C@@H]1[C@H](O)C[C@@H]1[C@@]3(C)CC[C@H](O)C(C)(C)[C@@H]3[C@@H](O[C@@H]3O[C@H](CO)[C@@H](O)[C@H](O)[C@H]3O[C@@H]3OC[C@@H](O)[C@H](O)[C@H]3O)C[C@]12C [Notoginsenoside R1]
Sense of modulation: PLAU expression [3]: Increases

O=C1CCC[C@@H]2[C@H]3CCC[N+]4([O-])CCC[C@@H](CN12)[C@@H]34 (some centres unmarked) [Oxymatrine]
Sense of modulation: SMAD7 expression [1]: Increases
modulation of SMAD3 ('reduces SMAD3', level not given) [4]: reduces

N=C(N)c1ccc(N)cc1 [P-aminobenzamidine]
Sense of modulation: PLAU activity [3]: Reduces activity
Sense of modulation: PLAU activity ([3]; listed as p-aminobenzamidine): reduces

NC(=O)c1ccc(-c2nc(-c3ccc4c(c3)OCO4)c(-c3ccccn3)[nH]2)cc1 [SB-431542]
Sense of modulation: SMAD3 expression [4]: Reduces
modulation of SMAD3 ('reduces SMAD3', level not given) [4]: reduces

O=C(/C=C/c1ccc(O)c2c1[C@H](C(=O)O[C@H](Cc1ccc(O)c(O)c1)C(=O)O)[C@@H](c1ccc(O)c(O)c1)O2)O[C@H](Cc1ccc(O)c(O)c1)C(=O)O [Salvianolic Acid B (Sal B), Salvianolic Acid B]
Sense of modulation: TGFBR2 expression [5]: reduces
Sense of modulation: TGFBR2 expression ([5]; listed as Salvianolic acid B (SA-B)): Reduces
Sense of modulation: SMAD3 expression [4]: Reduces
modulation of SMAD3 ('reduces SMAD3', level not given) [4]: reduces

O=C([O-])Cc1ccccc1.[Na+] [Sodium phenylacetate (NaPA), Sodium phenylacetate]
Sense of modulation: PLAU expression [3]: Reduces
Sense of modulation: PLAU expression ([3]; listed as NaPA): reduces

COC(=O)[C@@H](c1ccccc1Cl)N1CCc2sccc2C1 [Thienopyridine SR 25989]
Sense of modulation: PLAU expression [3]: Increases

CCCCC(=O)N(Cc1ccc(-c2ccccc2-c2nnn[nH]2)cc1)[C@H](C(=O)O)C(C)C [Valsartan]
Sense of modulation: TIMP1 expression [6]: Reduces
Sense of modulation: TIMP1 expression ([6]; listed as valsartan): reduces

CC(C)(C#N)c1cc(Cn2cncn2)cc(C(C)(C)C#N)c1 [anastrozole]
Sense of modulation: ASPN expression (ASPN, Asporin): Increases

N#CCCN [beta-aminopropionitrile (bAPN), beta-aminopropionitrile]
Sense of modulation: PLOD2 expression [7]: Reduces

PACAP38: form of pituitary adenylate cyclase-activating polypeptide listed beneath PACAP
Sense of modulation: LYZ expression [8]: Increases

TGF-β1: Transforming growth factor beta 1 used to treat equivalent dermis at 200 pg/mL
integration and morphology of melanocytes (Dopa reaction on detached epidermis) [9]: still present in the epidermis and retain the correct dendritic morphology
melanin content (Fontana Masson stained sections, quantification by image analysis) [9]: visibly increased
melanin deposits in the epidermis [9]: higher
luminance of the samples (L*) ([9]; lower L* = darker): reduced

Vitamin K2 menaquinone
Sense of modulation: MATN2 expression (MATN2, matrilin 2): Increases
